In patent US20190330290A1, “PHARMACEUTICAL ASSOCIATION OF GROWTH FACTOR RECEPTOR AGONIST AND ADHESION PROTEIN INHIBITOR FOR CONVERTING A NEOPLASTIC CELL INTO A NON-NEOPLASTIC CELL AND USES THEREOF” (HISTIDE AG, priority 2015, published 2019):
Where no end group is shown, it is not given here.

What was measured:
pRB = pRB phosphorylation level, immunofluorescence staining quantified with ImageJ; type: cell-based, human
Method: (§1) The cells were first fixed for 20 min with 4% paraformaldehyde/PBS at 4° C. After fixation, the cells were permeabilized in PBS containing 1% Triton X-100 for 15 min. Protein immunofluorescent visualization was performed by first treating the cells with 1% (v/v) specific monoclonal antibodies for 1 hour at 37° C. Then the samples were incubated with Alexa fluor® 568 or 647 (F(ab′)2 fragment of IgG(H+L)) during 30 min at room temperature. The cell nuclei were counterstained in 20 ng/mL DAPI for 10 min at room temperature.
(§2) For this type of quantification the freeware image analysis ImageJ® software was used. The raw image was first converted to an 8-bit file, and then the unsharp mask feature was used (settings 1:0.2) to remove the image background (rolling ball radius 10). After smoothing, the resulting image, which appears similar to the original photomicrograph but with minimal background, was then converted to a binary image by setting a threshold. Threshold values were determined empirically by selecting a setting, which gave the most accurate binary image for a subset of randomly selected photomicrographs. The cell area was determined by manual delineation on raw fluorescent images. Total contact area and mean contact area per cell were calculated by “analyse particules” in ImageJ®. A minimum of 50 cells per condition were analyzed.
(§3) Neoplastic cells (in this example osteosarcoma cells) were cultured in the presence of pharmaceutical associations of the invention. A rapid (24 hours) decrease of the tumor markers was observed (FIG. 5). The adhesion checkpoint then activates the tumor suppressor proteins p53 and pRB.
(§4) The alginate used in these experiments was the Ultra Pure Sodium alginate powder PRONOVA UP MVG from Novamatrix (FMC Biopolymers, cat. no. 4200106). To a 1% MillQ water (1 g per 100 mL) alginate solution were added the cyclic GFR-binding peptide and the SiRNA molecules. The resulting mixture was then added to the cell cultures for 48 h.

p53 = p53 protein expression level, immunofluorescence staining quantified with ImageJ; type: cell-based, human; details: MG63 cells; alginate matrix with cyclic GFR-binding peptide + SiRNA Integrin alpha 3 + SiRNA Integrin beta 1; 48 h; 400 ng/mL GFR-binding compound
Method: as §1, §2, §3, §4

[1] = MG63 cells, alginate matrix with cyclic GFR-binding peptide + SiRNA Integrin alpha 3 + SiRNA Integrin beta 1, 48 h, 400 ng/mL GFR-binding compound
[2] = human osteosarcoma cells, MG63, pharmaceutical association containing the GFR-binding compound (Table 6)

Row | Sequence | pRB (%) (pRB; [1]) | P53 (%) (p53) | pRB (%) (pRB; [2])
1 | AAAAAAAAADAANNVVGIPEPSSVSQELSATSMLYYDAANNVV (also: cyclic) [SEQ ID NO: 4730] | 10% | 37% | 
2 | AAAAAAAAADAANNVVKIPKASSSRVRLSSLSTLFFDAANNVV (also: cyclic) [SEQ ID NO: 4727] | 11% | 32% | 
3 | AAAAAAAAADAANNVVKIPKASSTQVRLRSVKTAKVDAANNVV (also: cyclic) [SEQ ID NO: 4740] | 15% | 52% | 
4 | AAAAAAAAADENEKVVAASKASSSRVELRSVKIAKVDDSSNVI (also: cyclic) [SEQ ID NO: 4723] | 8% | 50% | 
5 | AAAAAAAAADENEKVVAASKASSVPEKMRPVQTRKIDDSSNVI (also: cyclic) [SEQ ID NO: 4741] | 15% | 49% | 
6 | AAAAAAAAADENEKVVAASKASSVPQEEEPLPMVYYDAANNVV (also: cyclic) [SEQ ID NO: 4721] | 12% | 39% | 
7 | AAAAAAAAADENEKVVKIPKASSVPTKMKPLSVLYVDDSSNVI (also: cyclic (mode not given here)) [SEQ ID NO: 4734] | 12% | 50% | 
8 | AAAAAAAAADENEKVVRVPSTSSVPAEESNITVQIMDDSSNVI (also: cyclic (mode not given here)) [SEQ ID NO: 4738] | 16% | 55% | 
9 | ASASPSSVSQDLSSLSILFF (Non-cyclic GFR-binding peptide) [SEQ ID NO: 58] |  |  | 15%
10 | GGGGGGGGGDDSSNVIAASKASSTPTDLNAISTLYFDDSSNVI (also: cyclic (mode not given here)) [SEQ ID NO: 4728] | 15% | 33% | 
11 | GGGGGGGGGDDSSNVIGIPEPSSAPTRLEPISMLYLDENEKVV (also: cyclic (mode not given here)) [SEQ ID NO: 4731] | 8% | 40% | 
12 | GGGGGGGGGDDSSNVIKIPKASSVPTGGSNITVQIMDDSSNVI (also: cyclic (mode not given here)) [SEQ ID NO: 4722] | 17% | 51% | 
13 | GGGGGGGGGDDSSNVIRVPSTSSAPTKMNAISMLYFDENEKVV (also: cyclic (mode not given here)) [SEQ ID NO: 4719] | 15% | 44% | 
14 | GGGGGGGGGDDSSNVIRVPSTSSVPTGQSAISTLYLDDSSNVI (also: cyclic (mode not given here)) [SEQ ID NO: 4718] | 10% | 40% | 
15 | GGGGGGGGGDDSSNVISTPPTSSSRVQLSAISMLYLDDSSNVI (also: cyclic (mode not given here)) [SEQ ID NO: 4725] | 6% | 29% | 
16 | GGGGGGGGGDDSSNVISTPPTSSVSQKMKPLSILYVDDSSNVI (also: cyclic (mode not given here)) [SEQ ID NO: 4735] | 8% | 51% | 
17 | GGGGGGGGGDENEKVVGIPEPSSAPVDLKPLSTLYVDENEKVV (also: cyclic (mode not given here)) [SEQ ID NO: 4720] | 9% | 38% | 

Row | Sequence | pRB (%) (pRB; [1]) | P53 (%) (p53) | pRB (%) (pRB; [2])
18 | GGGGGGGGGDENEKVVKIPKASSTQVRLRPVQIRKIDAANNVV (also: cyclic (mode not given here)) [SEQ ID NO: 4724] | 7% | 47% | 
19 | GGGGGGGGGDENEKVVKIPKASSVSQQLEPISTLYLDENEKVV (also: cyclic (mode not given here)) [SEQ ID NO: 4732] | 9% | 42% | 
20 | GGGGGGGGGDENEKVVNDEGLESVPEDLSSLSVLFFDENEKVV (also: cyclic (mode not given here)) [SEQ ID NO: 4717] | 12% | 42% | 
21 | GGGGGGGGGDENEKVVRVPSTSSTQVDLNAISVLYFDENEKVV (also: cyclic (mode not given here)) [SEQ ID NO: 4729] | 13% | 38% | 
22 | GGGGGGGGGDENEKVVRVPSTSSTQVKMSAISMLYLDENEKVV (also: cyclic (mode not given here)) [SEQ ID NO: 4726] | 10% | 32% | 
23 | GGGGGGGGGDENEKVVSTPPTSSVPTEVSPINTLYFDENEKVV (also: cyclic (mode not given here)) [SEQ ID NO: 4733] | 17% | 38% | 
24 | GGGGGGGGGFDNDENVVAASKASSVPQRLRSVKVAKVFDNDENVV (also: cyclic (mode not given here)) [SEQ ID NO: 4739] | 14% | 51% | 
25 | GGGGGGGGGFDNDENVVGIPEPSSAPVDMRPVQIRKIFDNDENVV (also: cyclic (mode not given here)) [SEQ ID NO: 4742] | 14% | 46% | 
26 | GGGGGGGGGFDNDENVVRVPSTSSVPEKMEPLTMLYYFDNDENVV (also: cyclic (mode not given here)) [SEQ ID NO: 4736] | 9% | 47% | 
27 | GGGGGGGGGFDNDENVVSTPPTSSTPTKMSNITTQIMFDNDENVV (also: cyclic (mode not given here)) [SEQ ID NO: 4737] | 18% | 53% | 
28 | NDEGLESVPTEERSVKVAKV (Non-cyclic GFR-binding peptide) [SEQ ID NO: 63] |  |  | 22%
29 | NDEGLESVPTEESAISMLYL (Non-cyclic GFR-binding peptide) [SEQ ID NO: 56] |  |  | 18%
30 | SIPKASSTPTELSPINMLYF (Non-cyclic GFR-binding peptide) [SEQ ID NO: 54] |  |  | 23%
31 | SSVKSQPSRVHHKPLSMLYV (Non-cyclic GFR-binding peptide) [SEQ ID NO: 62] |  |  | 18%
32 | SSVKSQPSRVHHSPISILFI (Non-cyclic GFR-binding peptide) [SEQ ID NO: 57] |  |  | 17%
33 | VVPKPSSAPTQLEPISILYL (Non-cyclic GFR-binding peptide) [SEQ ID NO: 59] |  |  | 21%
